Measured values published in paper PMC6943714, “Rigorous Computational and Experimental Investigations on MDM2/MDMX-Targeted Linear and Macrocyclic Peptides” (Molecules, 2019).
Where a SMILES comes first, the peptide text is derived from it. Bridges are numbered along the chain shown (N, C = ends). [ ]: non-standard residue; d: D form. R8 = C=CCCCCCC[C@@](C)(N)C(=O)O; Cba = N[C@@H](CC1CCC1)C(=O)O; S5 = C=CCCC[C@](C)(N)C(=O)O

What was measured:
MDM2 (1-125) = biological target: T1, MDM2 (1-125) (Homo sapiens, UniProt Q00987); assay: Mdm2 competitive fluorescence anisotropy assay; type: binding; conditions: read-out: Experimental MDM2 Kd
T1 construct: Purified MDM2 (1-125) protein was titrated against
Description: Mdm2 Competitive Fluorescence Anisotropy Assay and Kd Determination Purified MDM2 (1-125) protein was titrated against 50 nM carboxyfluorescein (FAM)-labeled 12/1 peptide (FAM-[…]-NH2). […] (4) r=r0+(rb−r0)((Kd+[L]t+[P]t)−(Kd+[L]t+[P]t)^2−4[L]t[P]t/2[L]t)
[P] is the protein concentration (MDM2), [L] is the labeled peptide concentration, r is the anisotropy measured, ro is the anisotropy of the free peptide, rb is the anisotropy of the MDM2–FAM-labeled peptide complex, Kd is the dissociation constant, [L]t is the total FAM-labeled peptide concentration, and [P]t is the total MDM2 concentration.
Apparent Kd values were determined for a variety of molecules via competitive fluorescence anisotropy experiments. Titrations were carried out with the concentration of MDM2 held constant at 250 nM and the labeled peptide at 50 nM. The competing molecules were then titrated against the complex of the FAM-labeled peptide and protein. Apparent Kd values were determined by fitting the experimental data to the equations shown below: [58, 59]. […]
[L]st and [L]t denote labeled ligand and total unlabeled ligand input concentrations, respectively. […] Kd1 is the apparent Kd for the labeled peptide used in the respective experiment, which has been experimentally determined as described in the previous paragraph. […] Readings were carried out with an Envision Multilabel Reader (PerkinElmer). […]

MDMX = biological target: T2, MDMX (Homo sapiens, UniProt O15151); assay: Experimental MDMX binding (Table 4)
T2 sequence (O15151 1-490): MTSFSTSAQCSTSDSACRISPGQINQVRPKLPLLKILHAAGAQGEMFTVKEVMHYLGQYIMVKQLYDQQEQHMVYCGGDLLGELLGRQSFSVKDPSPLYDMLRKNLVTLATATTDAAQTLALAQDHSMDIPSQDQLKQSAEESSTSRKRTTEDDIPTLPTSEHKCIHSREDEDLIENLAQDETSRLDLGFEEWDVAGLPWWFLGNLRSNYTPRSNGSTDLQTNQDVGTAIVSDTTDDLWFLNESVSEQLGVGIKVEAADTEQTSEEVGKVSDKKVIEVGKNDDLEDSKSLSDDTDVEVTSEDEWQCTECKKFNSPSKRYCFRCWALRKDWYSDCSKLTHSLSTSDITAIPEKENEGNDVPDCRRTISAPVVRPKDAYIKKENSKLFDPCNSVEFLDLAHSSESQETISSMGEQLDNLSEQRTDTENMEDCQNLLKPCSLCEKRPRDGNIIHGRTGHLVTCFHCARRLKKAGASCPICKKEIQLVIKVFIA
Description: Table 4 Prospective Testing Data. | column: Experimental MDMX / Kd (nM); Experimental MDMX / ΔΔG (kcal)

T1 sequence (Q00987 1-125): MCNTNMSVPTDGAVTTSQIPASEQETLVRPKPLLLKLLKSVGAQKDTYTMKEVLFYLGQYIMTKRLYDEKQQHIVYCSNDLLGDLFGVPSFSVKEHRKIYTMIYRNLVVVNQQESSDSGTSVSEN

| Kd (MDM2 (1-125)) [nM] | Kd (MDMX) [nM] | SMILES |
| --- | --- | --- |
| 51.5 | 130 | CC(=O)N[C@@H](CC(C)C)C(=O)N[C@H](C(=O)N[C@@H](Cc1ccccc1)C(=O)N[C@]1(C)CCCCCCC=CCCC[C@@](C)(C(=O)N[C@@H](CO)C(=O)N[C@@H](C)C(=O)N[C@@H](C)C(N)=O)NC(=O)[C@H](CC2CCC2)NC(=O)[C@H](CC(C)C)NC(=O)[C@H](CCC(N)=O)NC(=O)[C@H](Cc2c[nH]c3ccccc23)NC(=O)[C@H](C)NC(=O)[C@H](CCC(=O)O)NC1=O)[C@@H](C)O [Y6A] (Ac-LTF[R8]EAWQL[Cba][S5]SAA-NH2; staple 4-11) |
| 365 | 921 | CC(=O)N[C@@H](CC(C)C)C(=O)N[C@H](C(=O)N[C@@H](Cc1ccccc1)C(=O)N[C@]1(C)CCCCCCC=CCCC[C@@](C)(C(=O)N[C@@H](CO)C(=O)N[C@@H](C)C(=O)N[C@@H](C)C(N)=O)NC(=O)[C@H](CC2CCC2)NC(=O)[C@H](CC(C)C)NC(=O)[C@H](CCC(N)=O)NC(=O)[C@H](Cc2c[nH]c3ccccc23)NC(=O)[C@@H](Cc2ccc(O)cc2)NC(=O)[C@H](CCC(=O)O)NC1=O)[C@@H](C)O [Y6dY] |
|  | 12.5 | CC(=O)N[C@@H](CC(C)C)C(=O)N[C@H](C(=O)N[C@@H](Cc1ccccc1)C(=O)N[C@]1(C)CCCCCCC=CCCC[C@@](C)(C(=O)N[C@@H](CO)C(=O)N[C@@H](C)C(=O)N[C@@H](C)C(N)=O)NC(=O)[C@H](CC2CCC2)NC(=O)[C@H](CC(C)C)NC(=O)[C@H](CCC(N)=O)NC(=O)[C@H](Cc2c[nH]c3ccccc23)NC(=O)[C@H](Cc2ccc(O)cc2)NC(=O)[C@H](CCC(=O)O)NC1=O)[C@@H](C)O [WT] |
